Measurements taken from PubChem BioAssay AID1963422 (Molecular Pharmacology Branch, DTP, NCI, 2024).

System: 463943-066-T-J2-PDC complex spheroid growth
Assay: Anticancer human tumor 463943-066-T-J2-PDC patient-derived colon adenocarcinoma cell line growth inhibition [Asc]
Settings: for IC50: curve of first compound; for viability, T/C: stronger effect = lower value; active = viability on the fitted dose curve at most 10% of control; inactive = the rest
Procedure, shortened: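 Stromal components (HUVEC and hMSC) are co-assembled with the cancer cells into multicellular spheroids. Drugs are then added singly or paired, at concentrations falling by half-log increments from a clinically achievable maximum, capped at 10 microM without known Cmax.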
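Note: compound exposure lasted 7 days.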
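Throughout, for viability, T/C: 100% = DMSO vehicle control wells.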

CNC(C)C(=O)NC1CN(S(=O)(=O)c2cccc(S(=O)(=O)N3CCC4CCC(C(=O)NC(c5ccccc5)c5ccccc5)N4C(=O)C(NC(=O)C(C)NC)C3)c2)CCC2CCC(C(=O)NC(c3ccccc3)c3ccccc3)N2C1=O (centres undefined) + Cc1c(S(C)(=O)=O)c(-c2cc(F)cc(N3CCN(c4ccc(NS(=O)(=O)c5ccc(NC(CCN6CCC(C(=O)OCCCP(=O)(O)O)CC6)CSc6ccccc6)c(S(=O)(=O)C(F)(F)F)c5)cc4)CC3)c2)c(-c2ccc(Cl)cc2)n1C(C)C
inactive: viability, T/C (second compound 0.0316 µM, first compound 0.00316 µM) 99.7% | viability, T/C (second compound 0.0316 µM, first compound 0.01 µM) 97.5% | viability, T/C (second compound 0.0316 µM, first compound 0.0316 µM) 97.2% | viability, T/C (second compound 0.0316 µM, first compound 0.1 µM) 99.9% | viability, T/C (second compound 0.0316 µM, first compound 0.316 µM) 97.6% | viability, T/C (second compound 0.0316 µM, first compound 1 µM) 80.7% | viability, T/C (second compound 0.1 µM, first compound 0.00316 µM) 100% | viability, T/C (second compound 0.1 µM, first compound 0.01 µM) 91.6% | viability, T/C (second compound 0.1 µM, first compound 0.0316 µM) 96.6% | viability, T/C (second compound 0.1 µM, first compound 0.1 µM) 94.4% | viability, T/C (second compound 0.1 µM, first compound 0.316 µM) 98.8% | viability, T/C (second compound 0.1 µM, first compound 1 µM) 74% | viability, T/C (second compound 0.316 µM, first compound 0.00316 µM) 88.6% | viability, T/C (second compound 0.316 µM, first compound 0.01 µM) 89.3% | viability, T/C (second compound 0.316 µM, first compound 0.0316 µM) 88.2% | viability, T/C (second compound 0.316 µM, first compound 0.1 µM) 87.4% | viability, T/C (second compound 0.316 µM, first compound 0.316 µM) 93.2% | viability, T/C (second compound 0.316 µM, first compound 1 µM) 70.6% | viability, T/C (second compound 1 µM, first compound 0.00316 µM) 82.8% | viability, T/C (second compound 1 µM, first compound 0.01 µM) 77% | viability, T/C (second compound 1 µM, first compound 0.0316 µM) 77.8% | viability, T/C (second compound 1 µM, first compound 0.1 µM) 83.8% | viability, T/C (second compound 1 µM, first compound 0.316 µM) 76.8% | viability, T/C (second compound 1 µM, first compound 1 µM) 67.2% | viability, T/C (second compound 3.16 µM, first compound 0.00316 µM) 65.8% | viability, T/C (second compound 3.16 µM, first compound 0.01 µM) 77.3% | viability, T/C (second compound 3.16 µM, first compound 0.0316 µM) 66% | viability, T/C (second compound 3.16 µM, first compound 0.1 µM) 68.9% | viability, T/C (second compound 3.16 µM, first compound 0.316 µM) 70.7% | viability, T/C (second compound 3.16 µM, first compound 1 µM) 48.2% | viability, T/C (second compound 10 µM, first compound 0.00316 µM) 52.3% | viability, T/C (second compound 10 µM, first compound 0.01 µM) 49.5% | viability, T/C (second compound 10 µM, first compound 0.0316 µM) 52% | viability, T/C (second compound 10 µM, first compound 0.1 µM) 51.3% | viability, T/C (second compound 10 µM, first compound 0.316 µM) 52.5% | viability, T/C (second compound 10 µM, first compound 1 µM) 40.8%
> 1000 nM: IC50 (second compound 0.0316 µM) | IC50 (second compound 0.1 µM) | IC50 (second compound 0.316 µM) | IC50 (second compound 1 µM) | IC50 (second compound 3.16 µM)
368 nM: IC50 (second compound 10 µM)

NC(=O)C(=Cn1cnc(-c2cc(C(F)(F)F)cc(C(F)(F)F)c2)n1)c1cncnc1 + Cc1c(S(C)(=O)=O)c(-c2cc(F)cc(N3CCN(c4ccc(NS(=O)(=O)c5ccc(NC(CCN6CCC(C(=O)OCCCP(=O)(O)O)CC6)CSc6ccccc6)c(S(=O)(=O)C(F)(F)F)c5)cc4)CC3)c2)c(-c2ccc(Cl)cc2)n1C(C)C
inactive: viability, T/C (second compound 0.0316 µM, first compound 0.000949 µM) 96.5% | viability, T/C (second compound 0.0316 µM, first compound 0.003 µM) 97% | viability, T/C (second compound 0.0316 µM, first compound 0.00949 µM) 84.1% | viability, T/C (second compound 0.0316 µM, first compound 0.03 µM) 89.1% | viability, T/C (second compound 0.0316 µM, first compound 0.0949 µM) 86% | viability, T/C (second compound 0.0316 µM, first compound 0.3 µM) 72.3% | viability, T/C (second compound 0.1 µM, first compound 0.000949 µM) 93.9% | viability, T/C (second compound 0.1 µM, first compound 0.003 µM) 88.4% | viability, T/C (second compound 0.1 µM, first compound 0.00949 µM) 84.4% | viability, T/C (second compound 0.1 µM, first compound 0.03 µM) 80.7% | viability, T/C (second compound 0.1 µM, first compound 0.0949 µM) 81.8% | viability, T/C (second compound 0.1 µM, first compound 0.3 µM) 69.5% | viability, T/C (second compound 0.316 µM, first compound 0.000949 µM) 83.5% | viability, T/C (second compound 0.316 µM, first compound 0.003 µM) 90.7% | viability, T/C (second compound 0.316 µM, first compound 0.00949 µM) 75.2% | viability, T/C (second compound 0.316 µM, first compound 0.03 µM) 78.8% | viability, T/C (second compound 0.316 µM, first compound 0.0949 µM) 72% | viability, T/C (second compound 0.316 µM, first compound 0.3 µM) 71.3% | viability, T/C (second compound 1 µM, first compound 0.000949 µM) 78.9% | viability, T/C (second compound 1 µM, first compound 0.003 µM) 75.2% | viability, T/C (second compound 1 µM, first compound 0.00949 µM) 68.8% | viability, T/C (second compound 1 µM, first compound 0.03 µM) 72% | viability, T/C (second compound 1 µM, first compound 0.0949 µM) 72.7% | viability, T/C (second compound 1 µM, first compound 0.3 µM) 61% | viability, T/C (second compound 3.16 µM, first compound 0.000949 µM) 61.2% | viability, T/C (second compound 3.16 µM, first compound 0.003 µM) 59.6% | viability, T/C (second compound 3.16 µM, first compound 0.00949 µM) 57.6% | viability, T/C (second compound 3.16 µM, first compound 0.03 µM) 58.8% | viability, T/C (second compound 3.16 µM, first compound 0.0949 µM) 55.7% | viability, T/C (second compound 3.16 µM, first compound 0.3 µM) 49.6% | viability, T/C (second compound 10 µM, first compound 0.000949 µM) 50.1% | viability, T/C (second compound 10 µM, first compound 0.003 µM) 45.6% | viability, T/C (second compound 10 µM, first compound 0.00949 µM) 48.6% | viability, T/C (second compound 10 µM, first compound 0.03 µM) 44% | viability, T/C (second compound 10 µM, first compound 0.0949 µM) 52% | viability, T/C (second compound 10 µM, first compound 0.3 µM) 36.2%
> 300 nM: IC50 (second compound 0.0316 µM) | IC50 (second compound 0.1 µM) | IC50 (second compound 0.316 µM) | IC50 (second compound 1 µM) | IC50 (second compound 3.16 µM)
0.949 nM: IC50 (second compound 10 µM)
